Test results taken from US7923440B2, “Method of treating or preventing immune mediated disorders and pharmaceutical formulation for use therein” (Pantarhei Bioscience B.V., priority 2002, dated 2011).

Experiments:
[1] = molecular target: T1, human sex Hormone Binding Globulin (SHBG) (Homo sapiens, UniProt P04278); experiment: Competitive steroid-binding assay for SHBG; conditions: comparison among tested steroids; order ethinylestradiol, 17β-estradiol, testosterone, 5α-dihydrotestosterone
T1 construct: made in house; host or cells: transgenic mouse (serum)
T1 sequence (P04278 30-402): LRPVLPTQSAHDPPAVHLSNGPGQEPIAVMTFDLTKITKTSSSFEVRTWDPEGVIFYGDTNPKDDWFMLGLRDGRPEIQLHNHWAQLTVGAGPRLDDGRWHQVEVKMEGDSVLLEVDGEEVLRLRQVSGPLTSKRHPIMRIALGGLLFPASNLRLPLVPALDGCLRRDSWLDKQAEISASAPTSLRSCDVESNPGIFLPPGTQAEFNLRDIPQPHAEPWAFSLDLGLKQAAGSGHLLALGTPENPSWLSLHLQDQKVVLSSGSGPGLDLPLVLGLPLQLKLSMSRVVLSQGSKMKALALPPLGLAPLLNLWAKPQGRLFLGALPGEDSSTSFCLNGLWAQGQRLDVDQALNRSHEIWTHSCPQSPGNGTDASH
Experimental: Human SHBG was treated for 30 min at room temperature with a dextran-coated charcoal (DCC) suspension in phosphate buffered saline (PBS) to remove any steroid ligand. After centrifugation (2,000×g for 10 min) to sediment the DCC, the supernatant containing the human SHBG was diluted in PBS to a concentration of 1 nM based on its steroid binding capacity.
The average amounts of [^3H]labeled ligands bound to SHBG at each concentration of competitor (B) were expressed as a percentage of the average amounts of [^3H]labeled ligands bound to SHBG in the absence of competitor (B0), and were plotted against the concentration of competitor in each assay tube.

[2] = test system: AP-1 site in the presence of ERα; conditions: Paech et al. 1997; cited from earlier work
[3] = test system: AP-1 site in the presence of ERβ; conditions: in the presence of / through ERβ, Paech et al. 1997; cited from earlier work
[4] = test system: male DBA/1 mice with collagen induced arthritis (CIA); experiment: Collagen induced arthritis (CIA) in male DBA/1 mice, oral treatment; format: in vivo, mouse; conditions: 1 mg/kg
Experimental: The ability of estetrol to alleviate the severity of immune mediated disorders and its possible side-effects were evaluated and compared with dexamethasone in mice developing collagen induced arthritis (CIA), which is another experimental system of autoimmune and chronic inflammatory disease, representing human arthritic diseases, particularly rheumatoid arthritis (RA).
Arthritis was induced in male DBA/1 mice using a two-step immunization protocol (Joosten et al., “Dual role of IL-12 in early and late stages of murine collagen type II arthritis”. J Immunol 1997; 159:4094-4102; Joosten et al., “IL-1β blockade prevents cartilage and bone destruction in murine type II collagen-induced arthritis, whereas TNFα blockade only ameliorates joint inflammation”. J Immunol 1999; 163:5049-55). This strain is highly susceptible to CIA induced with bovine type II collagen. On day 0, mice were immunized with bovine type II collagen (100 μg) emulsified in Freund's complete adjuvant (four subcutaneous injections in the back). On day 21, mice were boosted with an i.p. injection of 100 μg collagen type II diluted in PBS.
The effect of oral treatment with estetrol on collagen-induced arthritis was studied in a 6-week study design. From day 22 until the end of the study (day 42), the animals were treated once daily with vehicle (hydroxypropyl-beta-cyclodextrin in a 20% wt/vol solution in water) serving as negative control or four different dosages of estetrol (3 mg/kg, 1 mg/kg, 0.3 mg/kg and 0.1 mg/kg). Dexamethasone (1 mg/kg), was chosen as a positive control because it is a well studied corticosteroid that reduces swelling and inflammation and is used in a variety of disorders such as skin diseases (psoriasis, hives), allergic conditions, breathing problems, cancer, blood disorders (anemia), digestive problems, eye disorders and for the treatment of arthritis. Although effective as an anti-inflammatory agent, dexamethasone is also known to induce a number of side effects, which amongst others include in humans the induction of osteoporosis, reduced adrenal function, dizziness, nausea, indigestion, increased appetite, weight gain due to enhanced water retention, weakness and/or sleep disturbances. In addition, systemic dexamethasone treatment in rodents results in strong catabolic effects that can be easily observed as weight loss (Orzechowski et al. 2002, “Rats with a glucocorticoid-induced catabolic state show symptoms of oxidative stress and spleen atrophy: the effects of age and recovery”. J Vet Med A Physiol Pathol Clin Med; 49:256-63).
All groups used in the study consisted of 13 mice. During the study animals were weighed and monitored for clinical signs of arthritis. Scoring of disease severity (clinical arthritis score) was performed according to scoring system described by Joosten et al. 1997 (J. Immunol., 159:4094-4102) and Joosten et al. 1999 (J. Immunol., 163:5049-55).
Basic statistical analyses were performed as follows: The significance of differences between all treatment groups in the main clinical outcome parameters was tested using analysis of variance (ANOVA). Each significant ANOVA was followed by post hoc Tukey tests to determine the significance of the difference between each treatment group and the control group. Furthermore, linear regression analysis was used to study the dose-dependency of the effects of treatment with estetrol. All statistical analysis were performed using statistical software program SPSS 10.0 for Windows (SPSS Inc., Chicago, Ill., USA).

[5] = elimination from the blood; cited from earlier work
[6] = test system: castrated mice with experimental autoimmune encephalomyelitis (EAE); conditions: amount inducing serum levels of late stage pregnancy, Jansson et al. 1998; cited from earlier work

C[C@]12CC[C@H]3[C@@H](CCC4=CC(=O)CC[C@@]43C)[C@@H]1CC[C@@H]2O [testosterone, reference compound]
relative binding affinity for human SHBG [1]: in this order, show an increased relative binding affinity for human SHBG

O=C(c1ccc(OCCN2CCCCC2)cc1)c1c(-c2ccc(O)cc2)sc2cc(O)ccc12 [raloxifene]
effect on AP-1 site [2]: inhibit | effect on AP-1 site [3]: stimulate

CC/C(=C(\c1ccccc1)c1ccc(OCCN(C)C)cc1)c1ccccc1 [tamoxifen]
effect on AP-1 site [2]: inhibit | effect on AP-1 site [3]: stimulate

C[C@]12CCC(=O)C[C@@H]1CC[C@@H]1[C@@H]2CC[C@]2(C)[C@@H](O)CC[C@@H]12 [5α-dihydrotestosterone, reference compound]
relative binding affinity for human SHBG [1]: in this order, show an increased relative binding affinity for human SHBG

C[C@@H]1C[C@H]2[C@@H]3CCC4=CC(=O)C=C[C@]4(C)[C@@]3(F)[C@@H](O)C[C@]2(C)[C@@]1(O)C(=O)CO [dexamethasone, reference compound]
average cumulative arthritis score ([4]; day 21 to 42, vehicle 31.4±1.73): 0 | body weight, % of initial weight (day 21) ([4]; day 28): 91.5% | body weight, % of initial weight (day 21) ([4]; day 35): 91.4% | body weight, % of initial weight (day 21) ([4]; day 42): 94.0% | macroscopic arthritis score ([4]; until day 42, vehicle 5.90±0.38 on day 42): 0 | disease incidence (arthritis) ([4]; up to day 42): 0%

C[C@]12CC[C@@H]3c4ccc(O)cc4C[C@@H](CCCCCCCCC[S+]([O-])CCCC(F)(F)C(F)(F)F)[C@H]3[C@@H]1CC[C@@H]2O (stereo partly shown) [ICI-182,780]
effect on AP-1 site [2]: inhibit | effect on AP-1 site [3]: stimulate

C[C@]12CC[C@@H]3c4ccc(O)cc4CC[C@H]3[C@@H]1CC[C@@H]2O [E2, 17β-estradiol]
half-life [5]: around 1 hour | effect on AP-1 site [2]: activates | effect on AP-1 site [3]: inhibits | onset of experimental autoimmune encephalomyelitis (EAE) [6]: delays the onset

C[C@]12CC[C@@H]3c4ccc(O)cc4CC[C@H]3[C@@H]1C[C@@H](O)[C@@H]2O [estriol]
onset of experimental autoimmune encephalomyelitis (EAE) [6]: delays the onset
